Several values for one entry are separate records, joined by “and”; a condition that tells them apart may be missing. Equal values may be shown once.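 Compound exposure: 48 hours, 5 concentrations, 96-well plates. The concentration for 50% growth inhibition is given as GI50. TGI: total growth inhibition.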
Tests used:
Test in all cases: NCI-60 cell line screen, 48 h
UACC-257 melanoma = test system: UACC-257 melanoma
OVCAR-5 ovarian = test system: OVCAR-5 ovarian
UO-31 renal = test system: UO-31 renal
A549 NSCLC = test system: A549 NSCLC
A498 renal = test system: A498 renal
NCI-H226 lung = test system: NCI-H226 lung
K-562 leukemia = test system: K-562 leukemia
COLO 205 colon = test system: COLO 205 colon
CAKI-1 renal = test system: CAKI-1 renal
HOP-62 NSCLC = test system: HOP-62 NSCLC

For `CN1CCN(c2nc(C3=C(c4c[nH]c5ccccc45)C(=O)NC3=O)c3ccccc3n2)CC1`, the GI50 (UACC-257 melanoma) was 11.2 µM and 15.7 µM, the TGI (UACC-257 melanoma) was 23.1 µM and 31.3 µM and the GI50 (OVCAR-5 ovarian) was 28.7 µM and 34.5 µM. For the same molecule, the TGI (OVCAR-5 ovarian) was 65 µM and > 100 µM, the GI50 (UO-31 renal) was 8.2 µM and 11.7 µM and the TGI (UO-31 renal) was 65 µM and 30.1 µM. For the same molecule, the GI50 (A549 NSCLC) was 21.2 µM and 18.4 µM, the TGI (A549 NSCLC) was 65 µM and 48.9 µM and the GI50 (A498 renal) was 12.9 µM and 15.4 µM. For the same molecule, the TGI (A498 renal) was 24.3 µM and 29.7 µM, the GI50 (NCI-H226 lung) was 12.4 µM and 28.3 µM and the TGI (NCI-H226 lung) was 37.9 µM and 75.3 µM. For the same molecule, the GI50 (K-562 leukemia) was 11.9 µM and 12.6 µM, the TGI (K-562 leukemia) was 65 µM and 49.2 µM and the GI50 (COLO 205 colon) was 8 µM and 11.4 µM. The TGI (COLO 205 colon) was 17.3 µM and 24.5 µM, the GI50 (CAKI-1 renal) was 9.47 µM and 16.9 µM and the TGI (CAKI-1 renal) was 54.5 µM and 46.1 µM. The GI50 (HOP-62 NSCLC) was 13.6 µM and 19.8 µM and the TGI (HOP-62 NSCLC) was 65 µM and 42.9 µM.
In the case of `O=C(Nc1ccc(Cl)cc1Cl)c1c/c(=N\O)c2ccc(O)cc2o1`, the TGI (UACC-257 melanoma) is reported as greater than 100 µM, the TGI (OVCAR-5 ovarian) is reported as greater than 100 µM and the TGI (UO-31 renal) is reported as greater than 100 µM. For the same molecule, the TGI (A549 NSCLC) was greater than 100 µM, the TGI (A498 renal) was greater than 100 µM and the TGI (NCI-H226 lung) was greater than 100 µM. For the same molecule, the TGI (K-562 leukemia) was greater than 100 µM, the TGI (COLO 205 colon) was greater than 100 µM and the TGI (CAKI-1 renal) was greater than 100 µM. It also gave a TGI (HOP-62 NSCLC) greater than 100 µM.
`CC1=NN(C(=O)CC(=O)Nc2ccccc2)C(=O)C1N=Nc1ccc(S(N)(=O)=O)cc1` (stereo not given) was tested, and the TGI (UACC-257 melanoma) was greater than 100 µM, the TGI (OVCAR-5 ovarian) was greater than 100 µM and the TGI (UO-31 renal) was greater than 100 µM. For the same molecule, the TGI (A549 NSCLC) was greater than 100 µM, the TGI (A498 renal) was greater than 100 µM and the TGI (NCI-H226 lung) was greater than 100 µM. For the same molecule, the TGI (K-562 leukemia) was greater than 100 µM, the TGI (COLO 205 colon) was greater than 100 µM and the TGI (CAKI-1 renal) was greater than 100 µM. The TGI (HOP-62 NSCLC) was greater than 100 µM.
Work on `COc1cc(C2C3=C(COC3=O)N(CCO)c3cc4c(cc32)OCCO4)cc(OC)c1O` (stereo not given) yielded a GI50 (UACC-257 melanoma) greater than 10.2 µM, a TGI (UACC-257 melanoma) greater than 50 µM and a GI50 (OVCAR-5 ovarian) of 49.9 µM. The TGI (OVCAR-5 ovarian) was greater than 50 µM, the GI50 (UO-31 renal) was greater than 16.7 µM and the TGI (UO-31 renal) was greater than 50 µM. The GI50 (A549 NSCLC) was 9.71 µM, the TGI (A549 NSCLC) was greater than 50 µM and the GI50 (A498 renal) was 1.41 µM. For the same molecule, the TGI (A498 renal) was greater than 23.4 µM, the GI50 (NCI-H226 lung) was greater than 19.5 µM and the TGI (NCI-H226 lung) was greater than 50 µM. The GI50 (K-562 leukemia) was 1.89 µM, the TGI (K-562 leukemia) was greater than 50 µM and the GI50 (COLO 205 colon) was 1.67 µM. For the same molecule, the TGI (COLO 205 colon) was 12 µM, the GI50 (CAKI-1 renal) was 2.84 µM and the TGI (CAKI-1 renal) was greater than 45 µM. For the same molecule, the GI50 (HOP-62 NSCLC) was 2.72 µM and the TGI (HOP-62 NSCLC) was greater than 50 µM.
In the case of `CC([C@H]1CCC2C3CCC4C(=O)C(NC=O)=CC[C@]4(C)C3CC[C@@]21C)N(C)C` (stereo not given in full), the GI50 (UACC-257 melanoma) is reported as 4.24 µM, the TGI (UACC-257 melanoma) is reported as 10.4 µM and the GI50 (OVCAR-5 ovarian) is reported as 8.45 µM. It also gave a TGI (OVCAR-5 ovarian) of 24.9 µM, a GI50 (UO-31 renal) of 1.98 µM and a TGI (UO-31 renal) of 7.4 µM. For the same molecule, the GI50 (A549 NSCLC) was 3.81 µM, the TGI (A549 NSCLC) was 12.7 µM and the GI50 (A498 renal) was 3.83 µM. The TGI (A498 renal) was 12.5 µM, the GI50 (NCI-H226 lung) was 4.72 µM and the TGI (NCI-H226 lung) was 19.4 µM. It also gave a GI50 (K-562 leukemia) of 0.965 µM, a TGI (K-562 leukemia) greater than 23.8 µM and a GI50 (COLO 205 colon) of 1.75 µM. It also gave a TGI (COLO 205 colon) of 3.4 µM, a GI50 (CAKI-1 renal) of 3.79 µM and a TGI (CAKI-1 renal) of 33.5 µM. For the same molecule, the GI50 (HOP-62 NSCLC) was 2.01 µM and the TGI (HOP-62 NSCLC) was 4.56 µM.
For `O=C(O)CSc1ccn(Cc2ccccc2)c1`, the TGI (UACC-257 melanoma) was greater than 100 µM, the TGI (OVCAR-5 ovarian) was greater than 100 µM and the TGI (UO-31 renal) was greater than 100 µM. It also gave a TGI (A549 NSCLC) greater than 100 µM, a TGI (A498 renal) greater than 100 µM and a TGI (NCI-H226 lung) greater than 100 µM. For the same molecule, the TGI (K-562 leukemia) was greater than 100 µM, the TGI (COLO 205 colon) was greater than 100 µM and the TGI (CAKI-1 renal) was greater than 100 µM. The TGI (HOP-62 NSCLC) was greater than 100 µM.
